The values that follow come from PMC6735358, “Synthesis and bioevaluation of novel steroidal isatin conjugates derived from epiandrosterone/androsterone” (Journal of Enzyme Inhibition and Medicinal Chemistry, 2019).

Data set [1] relates to SGC-7901 (Human gastric cancer cell line). Put plainly: MTT in vitro cytotoxicity, SGC-7901. The note with it: SGC-7901, 72 h, read-out: In vitro cytotoxicity IC50.
Description: (§2) After removal of the growth medium, six serial dilutions of each tested compound in 200 µL test medium were added. Plates were incubated at 37 °C in a humidified atmosphere containing 5% CO2. After 72 h of exposure, the culture medium was removed and 30 µL of the MTT solution (5 mg/mL in PBS) was added to each well. The plate was further incubated for 4 h to allow MTT formazan formation. To dissolve the resulting MTT formazan, 50 µL of DMSO was added to each well, followed by thorough mixing with a microplate shaker. Absorbance at 570 nm was measured on a microplate reader (Thermo Scientific, MK3). […] Assays were performed in triplicate on three independent experiments.
Data set [2] has as its system SGC-7901, A875 and HepG2 cell lines. The data set is described as follows: MTT in vitro cytotoxicity, tested cancer cell lines together. The format is cell-based, human. The conditions noted are these: for IC50: Homo sapiens, span over SGC-7901, A875, HepG2, read-out: range of IC50 value over the tested cancer cell lines; for dose-response of cell growth inhibition: SGC-7901, A875 and HepG2, Figure 4. As to the method: (§1) Assays were performed in triplicate on three independent experiments.

Data set [3] concerns HepG2 (Human hepatocellular liver carcinoma cell line). The data set is described as follows: MTT in vitro cytotoxicity, HepG2. The note with it: HepG2, 72 h, read-out: In vitro cytotoxicity IC50.
Description: as §2
Data set [4] deals with A875 (Human melanoma cell line). Put plainly: MTT in vitro cytotoxicity, A875. The note with it: A875, 72 h, read-out: In vitro cytotoxicity IC50.
Description: as §2
The next data set in a line: in vitro. The conditions noted are these: human. As to the method: as §1

Structures are written as SMILES. A value given as a limit tells only on which side of the number the result lay.

The term IC50 denotes the midpoint of a concentration-inhibition curve. `C[C@]12CC[C@@H](O)C[C@@H]1CC[C@@H]1[C@@H]2CC[C@]2(C)C(=NN=C3C(=O)Nc4ccc([N+](=O)[O-])cc43)CC[C@@H]12` [6g, 3-(((3R,5S,8R,9S,10S,13S,14S)-3-Hydroxy-10,13-dimethyldodecahydro-1H-cyclopenta[a]phenanthren-17(2H,10H,14H)-ylidene)hydrazono)-5-nitroindolin-2-one]: the IC50 in data set [1] is 6.4 ± 1.74 µM; in data set [2], 3.85 to 6.4 µM; in data set [3], 4.31 ± 0.92 µM; in data set [4], 3.85 ± 1.44 µM; in “in vitro”, 11.2 ± 3.05 µM. For the same compound, the “dose-response of cell growth inhibition” value in data set [2] is on record as “dose-dependent manner”.
Regarding `C[C@]12CC[C@@H](O)C[C@@H]1CC[C@@H]1[C@@H]2CC[C@]2(C)C(=NN=C3C(=O)Nc4ccccc43)CC[C@@H]12` [6a, 3-(((3R,5S,8R,9S,10S,13S,14S)-3-Hydroxy-10,13-dimethyldodecahydro-1H-cyclopenta[a]phenanthren-17(2H,10H,14H)-ylidene)hydrazono)indolin-2-one], the IC50 in data set [1] was determined as 13.8 ± 2.65 µM; in data set [3] it was 20.4 ± 6.69 µM; in data set [4] it was 21.7 ± 4.82 µM; in “in vitro”, 8.29 ± 2.24 µM.
In the case of `C[C@]12CC[C@H](O)CC1CC[C@@H]1[C@@H]2CC[C@]2(C)C(=NN=C3C(=O)Nc4cc(F)ccc43)CC[C@@H]12` (stereo partly drawn) [3h, 6-Fluoro-3-(((3S,8R,9S,10S,13S,14S)-3-hydroxy-10,13-dimethyldodecahydro-1H-cyclopenta[a]phenanthren-17(2H,10H,14H)-ylidene)hydrazono)indolin-2-one], the IC50 was found to be 7.22 ± 1.17 µM in data set [1], 4.85 ± 0.84 µM in data set [3], 6.85 ± 1.99 µM in data set [4] and 7.87 ± 2.04 µM in the data set “in vitro”.
As to `C[C@]12CC[C@@H](O)C[C@@H]1CC[C@@H]1[C@@H]2CC[C@]2(C)C(=NN=C3C(=O)Nc4cc(F)ccc43)CC[C@@H]12` [6h, 6-Fluoro-3-(((3R,5S,8R,9S,10S,13S,14S)-3-hydroxy-10,13-dimethyldodecahydro-1H-cyclopenta[a]phenanthren-17(2H,10H,14H)-ylidene)hydrazono)indolin-2-one], the IC50 was found to be 9.2 ± 1.68 µM in data set [1], 5.41 ± 1.44 µM in data set [3], 7.71 ± 2.13 µM in data set [4] and 12.8 ± 2.79 µM in “in vitro”.
On the same counts, the results for `C[C@]12CC[C@H](O)CC1CC[C@@H]1[C@@H]2CC[C@]2(C)C(=NN=C3C(=O)Nc4ccc(I)cc43)CC[C@@H]12` (stereo partly drawn) [3e, 3-(((3S,8R,9S,10S,13S,14S)-3-Hydroxy-10,13-dimethyldodecahydro-1H-cyclopenta[a]phenanthren-17(2H,10H,14H)-ylidene)hydrazono)-5-iodoindolin-2-one] are 21.7 ± 3.86 µM, 18.6 ± 4.79 µM, 23.8 ± 4.39 µM and 14 ± 2.83 µM.
Taken in the same sequence, the figures for `C[C@]12CC[C@H](O)CC1CC[C@@H]1[C@@H]2CC[C@]2(C)C(=NN=C3C(=O)Nc4ccc([N+](=O)[O-])cc43)CC[C@@H]12` (stereo partly drawn) [3g, 3-(((3S,8R,9S,10S,13S,14S)-3-Hydroxy-10,13-dimethyldodecahydro-1H-cyclopenta[a]phenanthren-17(2H,10H,14H)-ylidene)hydrazono)-5-nitroindolin-2-one] were 11.9 ± 2.45 µM, 19.4 ± 3.37 µM, 26.2 ± 4.59 µM and 33.4 ± 6.15 µM.
Take `C[C@]12CC[C@@H](O)C[C@@H]1CC[C@@H]1[C@@H]2CC[C@]2(C)C(=NN=C3C(=O)Nc4ccc(Br)cc43)CC[C@@H]12` [6d, 5-Bromo-3-(((3R,5S,8R,9S,10S,13S,14S)-3-hydroxy-10,13-dimethyldodecahydro-1H-cyclopenta[a]phenanthren-17(2H,10H,14H)-ylidene)hydrazono)indolin-2-one]: the IC50 came out at 7.14 ± 1.41 µM in data set [1], 6.1 ± 2.09 µM in data set [3], 8.08 ± 0.51 µM in data set [4] and 4.4 ± 0.68 µM in “in vitro”.
Take `C[C@]12CC[C@H](O)CC1CC[C@@H]1[C@@H]2CC[C@]2(C)C(=NN=C3C(=O)Nc4ccc(F)cc43)CC[C@@H]12` (stereo partly drawn) [3b, 5-Fluoro-3-(((3S,8R,9S,10S,13S,14S)-3-hydroxy-10,13-dimethyldodecahydro-1H-cyclopenta[a]phenanthren-17(2H,10H,14H)-ylidene)hydrazono)indolin-2-one]: the half-inhibitory concentration (IC50) in data set [1] was 6.67 ± 1.77 µM; in data set [3], 6.12 ± 1.79 µM; in data set [4] it was 8.58 ± 1.64 µM; in “in vitro” it was 5.49 ± 1.33 µM. Moreover, the “dose-response of cell growth inhibition” value in data set [2] is listed as “dose-dependent manner”.
In the case of `C[C@]12CC[C@@H](O)C[C@@H]1CC[C@@H]1[C@@H]2CC[C@]2(C)C(=NN=C3C(=O)Nc4ccc(F)cc43)CC[C@@H]12` [6b, 5-Fluoro-3-(((3R,5S,8R,9S,10S,13S,14S)-3-hydroxy-10,13-dimethyldodecahydro-1H-cyclopenta[a]phenanthren-17(2H,10H,14H)-ylidene)hydrazono)indolin-2-one], the IC50 in data set [1] amounted to 9.51 ± 0.49 µM; in data set [3], 32.3 ± 4.21 µM; in data set [4], 42.2 ± 8.19 µM; in the data set “in vitro”, 7.09 ± 1.57 µM.
Consider `C[C@]12CC[C@@H](O)C[C@@H]1CC[C@@H]1[C@@H]2CC[C@]2(C)C(=NN=C3C(=O)Nc4ccc(I)cc43)CC[C@@H]12` [6e, 3-(((3R,5S,8R,9S,10S,13S,14S)-3-Hydroxy-10,13-dimethyldodecahydro-1H-cyclopenta[a]phenanthren-17(2H,10H,14H)-ylidene)hydrazono)-5-iodoindolin-2-one], for which the IC50 in data set [1] was 17.1 ± 3.68 µM; in data set [2] it was 8 to 20 µM; in data set [3], 8.99 ± 3.13 µM; in data set [4] it was 19.7 ± 1.89 µM; in the data set “in vitro” it was 18.5 ± 1 µM.
In the case of `C[C@]12CC[C@@H](O)C[C@@H]1CC[C@@H]1[C@@H]2CC[C@]2(C)C(=O)CC[C@@H]12` [Androsterone], the IC50 (in data set [1]; in data set [3]; in data set [4]; in the data set “in vitro”) was above 100 µM each time.
On to `C[C@]12CC[C@H](O)C[C@@H]1CC[C@@H]1[C@@H]2CC[C@]2(C)C(=O)CC[C@@H]12` [Epiandrosterone], for which the IC50 in data set [1] was found to be 69.8 ± 8.47 µM; in data set [3] it was 36.7 ± 10.6 µM; in data set [4] it was 63.6 ± 13.2 µM; in “in vitro” it was 91.2 ± 12.3 µM.
Take `C[C@]12CC[C@@H](O)C[C@@H]1CC[C@@H]1[C@@H]2CC[C@]2(C)C(=NN=C3C(=O)Nc4ccc(Cl)cc43)CC[C@@H]12` [6c, 5-Chloro-3-(((3R,5S,8R,9S,10S,13S,14S)-3-hydroxy-10,13-dimethyldodecahydro-1H-cyclopenta[a]phenanthren-17(2H,10H,14H)-ylidene)hydrazono)indolin-2-one]: the IC50 in data set [1] is 6.83 ± 2.01 µM; in data set [3] it was 4.84 ± 1.05 µM; in data set [4], 8.78 ± 0.64 µM; in the data set “in vitro”, 6.36 ± 1.37 µM. Further, the “dose-response of cell growth inhibition” value in data set [2] is given as “dose-dependent manner”.
`Cc1ccc2c(c1)C(=NN=C1CC[C@H]3[C@@H]4CCC5C[C@@H](O)CC[C@]5(C)[C@H]4CC[C@]13C)C(=O)N2` (stereo partly drawn) [3f, 3-(((3S,8R,9S,10S,13S,14S)-3-Hydroxy-10,13-dimethyldodecahydro-1H-cyclopenta[a]phenanthren-17(2H,10H,14H)-ylidene)hydrazono)-5-methylindolin-2-one]: the IC50 in data set [1] stood at 7.06 ± 1.27 µM; in data set [3] it was 6.91 ± 0.58 µM; in data set [4], 6.01 ± 1.95 µM; in “in vitro”, 6.08 ± 0.54 µM.
Taken in the same sequence, the figures for `Cc1ccc2c(c1)C(=NN=C1CC[C@H]3[C@@H]4CC[C@H]5C[C@H](O)CC[C@]5(C)[C@H]4CC[C@]13C)C(=O)N2` [6f, 3-(((3R,5S,8R,9S,10S,13S,14S)-3-Hydroxy-10,13-dimethyldodecahydro-1H-cyclopenta[a]phenanthren-17(2H,10H,14H)-ylidene)hydrazono)-5-methylindolin-2-one] were 9.12 ± 1.61 µM, 4.85 ± 1.07 µM, 8.25 ± 1.97 µM and 12.5 ± 4.36 µM.
As for `C[C@]12CC[C@H](O)CC1CC[C@@H]1[C@@H]2CC[C@]2(C)C(=NN=C3C(=O)Nc4ccc(Cl)cc43)CC[C@@H]12` (stereo partly drawn) [3c, 5-Chloro-3-(((3S,8R,9S,10S,13S,14S)-3-hydroxy-10,13-dimethyldodecahydro-1H-cyclopenta[a]phenanthren-17(2H,10H,14H)-ylidene)hydrazono)indolin-2-one], the IC50 in data set [1] worked out at 4.92 ± 1.13 µM; in data set [3], 2.39 ± 0.36 µM; in data set [4] it was 7.92 ± 1.95 µM; in “in vitro” it was 5.01 ± 1.37 µM. Further, the “dose-response of cell growth inhibition” value in data set [2] was “dose-dependent manner”.
As for `O=c1[nH]cc(F)c(=O)[nH]1` [5-FU, 5-Fluorouracil, reference compound], the IC50 in data set [1] came to 62 ± 8.38 µM; in data set [3], 63.2 ± 12.6 µM; in data set [4], 65.3 ± 7.3 µM; in “in vitro” (HL-7702 normal liver cells), 86 ± 9.61 µM.
With `C[C@]12CC[C@H](O)CC1CC[C@@H]1[C@@H]2CC[C@]2(C)C(=NN=C3C(=O)Nc4ccc(Br)cc43)CC[C@@H]12` (stereo partly drawn) [3d, 5-Bromo-3-(((3S,8R,9S,10S,13S,14S)-3-hydroxy-10,13-dimethyldodecahydro-1H-cyclopenta[a]phenanthren-17(2H,10H,14H)-ylidene)hydrazono)indolin-2-one], the IC50 in data set [1] is 8.43 ± 2.23 µM; in data set [3], 8.29 ± 2.41 µM; in data set [4] it was 11.6 ± 2.84 µM; in “in vitro”, 14.1 ± 3.79 µM.
On to `C[C@]12CC[C@H](O)CC1CC[C@@H]1[C@@H]2CC[C@]2(C)C(=NN=C3C(=O)Nc4ccccc43)CC[C@@H]12` (stereo partly drawn) [3a, 3-(((3S,8R,9S,10S,13S,14S)-3-Hydroxy-10,13-dimethyldodecahydro-1H-cyclopenta[a]phenanthren-17(2H,10H,14H)-ylidene)hydrazono)indolin-2-one], for which the IC50 in data set [1] came out at 7.69 ± 2.54 µM; in data set [3], 6.72 ± 1.59 µM; in data set [4], 9.51 ± 1.34 µM; in the data set “in vitro”, 5.65 ± 1.59 µM.
